Results: patent US11369593B2 (Texas Tech University System, priority 2017, dated 2022)

Assays:
Assay type in all cases: cell-based
PC12 cells [1] = test: Etoposide-induced apoptosis in PC12 cells, cell viability; details: for viability at 1 µM / viability at 3 µM / viability at 10 µM / viability at 30 µM: Rattus norvegicus
PC12 cells [2] = test: Serum starvation-induced apoptosis in PC12 cells, cell viability; details: Rattus norvegicus
PC12 cells [3] = test: ROS in PC12 cells, CellROX green / DAPI staining after H2O2; details: 400 μM H2O2 for 4 hours, FIG. 5A
Description: PC12 cells stained with CellROX and DAPI-blue nuclear stain. Greater intensity of green fluorescence indicates greater levels of ROS. Visualized through a microscope (40× magnification, bar=100 μM).
While flupirtine and retigabine are known antioxidants the inventors have shown (FIGS. 5A and 5B) that neuroprotective derivatives operate by a different mechanism of action. […] PC12 cells stained with CellROX and DAPI-blue nuclear stain. Greater intensity of green fluorescence indicates greater levels of ROS. Visualized through a microscope (40× magnification, bar=100 μM).

[4] = PC-12, 1 μM compound, etoposide-induced apoptosis, PC12 cells, read-out: % Viability 1 μM
[5] = PC-12, 3 μM compound, etoposide-induced apoptosis, PC12 cells, read-out: % Viability 3 μM
[6] = PC-12, 10 μM compound, etoposide-induced apoptosis, PC12 cells, read-out: % Viability 10 μM
[7] = PC-12, 30 μM compound, etoposide-induced apoptosis, PC12 cells, read-out: % Viability 30 μM
[8] = PC-12, 1 μM compound, serum starvation-induced apoptosis, PC12 cells, vehicle 55.04 ± 8.99, read-out: % Viability 1 μM
[9] = PC-12, 3 μM compound, serum starvation-induced apoptosis, PC12 cells, read-out: % Viability 3 μM
[10] = PC-12, 10 μM compound, serum starvation-induced apoptosis, PC12 cells, read-out: % Viability 10 μM
[11] = PC-12, 30 μM compound, serum starvation-induced apoptosis, PC12 cells, read-out: % Viability 30 μM
[12] = PC-12, read-out: % Viability 1 μM
[13] = PC-12, read-out: % Viability 3 μM
[14] = PC-12, read-out: % Viability 10 μM
[15] = PC-12, read-out: % Viability 30 μM

Work on `COC(=O)Nc1ccc(NCc2cccc(C(F)(F)F)c2)nc1N` [NK-16-4, Methyl 6-(3-(trifluoromethyl)benzylamino)-2-aminopyridin-3-ylcarbamate] yielded a viability at 1 µM (PC12 cells [1]; [4]) of 46.7 ± 3.26%, a viability at 3 µM (PC12 cells [1]; [5]) of 41.3 ± 10.1% and a viability at 10 µM (PC12 cells [1]; [6]) of 28.6 ± 2.14%. For the same compound, the viability at 30 µM (PC12 cells [1]; [7]) was 37 ± 3.91%, the viability at 1 µM (PC12 cells [2]; [8]) was 92.1 ± 10.2% and the viability at 3 µM (PC12 cells [2]; [9]) was 88 ± 8.56%. The viability at 10 µM (PC12 cells [2]; [10]) was 97.8 ± 9.35% and the viability at 30 µM (PC12 cells [2]; [11]) was 97.6 ± 1800%.

Compound `C=CCOC(=O)Nc1ccc(NCc2ccc(Cl)cc2)nc1N` [JG-4-5] has a viability at 1 µM (PC12 cells [1]; [4]) of 87.2 ± 19.8%, a viability at 3 µM (PC12 cells [1]; [5]) of 79.7 ± 7.48% and a viability at 10 µM (PC12 cells [1]; [6]) of 84.3 ± 13.2%. The viability at 30 µM (PC12 cells [1]; [7]) was 80.4 ± 24.1%, the viability at 1 µM (PC12 cells [2]; [8]) was 72.3 ± 1.45% and the viability at 3 µM (PC12 cells [2]; [9]) was 95.2 ± 2.41%. For the same compound, the viability at 10 µM (PC12 cells [2]; [10]) was 70.2 ± 9.45% and the viability at 30 µM (PC12 cells [2]; [11]) was 71.1 ± 8.61%.

`CCCOC(=O)Nc1ccc(NCc2ccc(F)cc2)cc1N` [NK-30-2, Propyl (2-amino-4-((4-fluorobenzyl)amino)phenyl)carbamate] was tested, and the viability at 1 µM (PC12 cells [1]; [4]) was 54.1 ± 9.34%, the viability at 3 µM (PC12 cells [1]; [5]) was 55.6 ± 7.41% and the viability at 10 µM (PC12 cells [1]; [6]) was 61.6 ± 4.82%. It also gave a viability at 30 µM (PC12 cells [1]; [7]) of 61.6 ± 18.1%, a viability at 1 µM (PC12 cells [2]; [8]) of 70.4 ± 3.39% and a viability at 3 µM (PC12 cells [2]; [9]) of 78.3 ± 7.18%. The viability at 10 µM (PC12 cells [2]; [10]) was 84.6 ± 4.75% and the viability at 30 µM (PC12 cells [2]; [11]) was 76.2 ± 1.61%.

With `COC(=O)Nc1ccc(NCc2ccc(F)cc2)nc1N` [NK-3-1, Methyl 6-(4-fluorobenzylamino)-2-aminopyridin-3-ylcarbamate] the viability at 1 µM (PC12 cells [1]; [4]) was 74.5 ± 33.1%, the viability at 3 µM (PC12 cells [1]; [5]) was 96.6 ± 14.6% and the viability at 10 µM (PC12 cells [1]; [6]) was 82.2 ± 23.4%. It also gave a viability at 30 µM (PC12 cells [1]; [7]) of 63.3 ± 27.4%, a viability at 1 µM (PC12 cells [2]; [8]) of 76.9 ± 10.2% and a viability at 3 µM (PC12 cells [2]; [9]) of 79.1 ± 8.28%. For the same compound, the viability at 10 µM (PC12 cells [2]; [10]) was 72.2 ± 9.15% and the viability at 30 µM (PC12 cells [2]; [11]) was 72.3 ± 16.4%.

In the case of `CCOC(=O)Nc1ccc(NCc2cc(C(F)(F)F)cc(C(F)(F)F)c2)nc1N` [NK-17-3, Ethyl (2-amino-6-((3,5-bis(trifluoromethyl)benzyl)amino)pyridin-3-yl)carbamate], the viability at 1 µM (PC12 cells [1]; [4]) is reported as 63.7 ± 22.7%, the viability at 3 µM (PC12 cells [1]; [5]) is reported as 75.7 ± 6.39% and the viability at 10 µM (PC12 cells [1]; [6]) is reported as 68.1 ± 9.52%. The viability at 30 µM (PC12 cells [1]; [7]) was 56 ± 6.26%, the viability at 1 µM (PC12 cells [2]; [8]) was 81.8 ± 8.69% and the viability at 3 µM (PC12 cells [2]; [9]) was 72.8 ± 12.4%. The viability at 10 µM (PC12 cells [2]; [10]) was 78.5 ± 6.27% and the viability at 30 µM (PC12 cells [2]; [11]) was 57.9 ± 9.54%.

Work on `CCOC(=O)Nc1ccc(NCc2ccc(F)cc2)cc1N` [NK-22-13, Ethyl (2-amino-4-((4-fluorobenzyl)amino)phenyl)carbamate, reference compound] yielded a viability at 1 µM (PC12 cells [1]; [12]) of 58.3 ± 2.86%, a viability at 3 µM (PC12 cells [1]; [13]) of 73.9 ± 13.9% and a viability at 10 µM (PC12 cells [1]; [14]) of 66.3 ± 17.6%. For the same compound, the viability at 30 µM (PC12 cells [1]; [15]) was 52.1 ± 7.62%, the viability at 1 µM (PC12 cells [2]; [12]) was 75.9 ± 15% and the viability at 3 µM (PC12 cells [2]; [13]) was 77.9 ± 22.6%. The viability at 10 µM (PC12 cells [2]; [14]) was 85.8 ± 17.9%, the viability at 30 µM (PC12 cells [2]; [15]) was 76.2 ± 25% and the “amelioration of reactive oxygen species (ROS)” value (PC12 cells [3]) was “do ameliorate ROS”.

Work on `Nc1ccc(N(Cc2ccc(F)cc2)C(=O)OCc2ccccc2)cc1N` [NK-22-6] yielded a viability at 1 µM (PC12 cells [1]; [4]) of 69.1 ± 20.1%, a viability at 3 µM (PC12 cells [1]; [5]) of 100 ± 5.4% and a viability at 10 µM (PC12 cells [1]; [6]) of 98.9 ± 7.93%. The viability at 30 µM (PC12 cells [1]; [7]) was 78.6 ± 23%, the viability at 1 µM (PC12 cells [2]; [8]) was 68.1 ± 8.86% and the viability at 3 µM (PC12 cells [2]; [9]) was 82.5 ± 10.5%. For the same compound, the viability at 10 µM (PC12 cells [2]; [10]) was 74.5 ± 8.48% and the viability at 30 µM (PC12 cells [2]; [11]) was 37.4 ± 4.98%.

Work on `CC(C)COC(=O)Nc1ccc(NCc2ccc(F)cc2)nc1N` [NK-8-1, Isobutyl 6-(4-fluorobenzylamino)-2-aminopyridin-3-ylcarbamate] yielded a viability at 1 µM (PC12 cells [1]; [4]) of 57.9 ± 22.4%, a viability at 3 µM (PC12 cells [1]; [5]) of 62.9 ± 2.98% and a viability at 10 µM (PC12 cells [1]; [6]) of 46.5 ± 3.36%. It also gave a viability at 30 µM (PC12 cells [1]; [7]) of 56.1 ± 0.67%, a viability at 1 µM (PC12 cells [2]; [8]) of 67.9 ± 12.6% and a viability at 3 µM (PC12 cells [2]; [9]) of 77.4 ± 11.7%. The viability at 10 µM (PC12 cells [2]; [10]) was 89.7 ± 6.68% and the viability at 30 µM (PC12 cells [2]; [11]) was 88.3 ± 10.8%.

Compound `CCOC(=O)Nc1ccc(NCc2ccc(C)cc2)cc1N` [JG-32-3, Ethyl (2-amino-4-((4-methylbenzyl)amino)phenyl)carbamate] has a viability at 1 µM (PC12 cells [1]; [4]) of 110 ± 39.4%, a viability at 3 µM (PC12 cells [1]; [5]) of 136 ± 30.1% and a viability at 10 µM (PC12 cells [1]; [6]) of 123 ± 23.2%. The viability at 30 µM (PC12 cells [1]; [7]) was 98 ± 22.9%, the “protective activity in WT PC12 etoposide assay” value (PC12 cells [1]; WT PC12 cells, etoposide) was “significant increase in potency” and the viability at 1 µM (PC12 cells [2]; [8]) was 62.6 ± 16.7%. The viability at 3 µM (PC12 cells [2]; [9]) was 79.54 ± 0.6%, the viability at 10 µM (PC12 cells [2]; [10]) was 77.9 ± 1.34% and the viability at 30 µM (PC12 cells [2]; [11]) was 71.33 ± 0.03%.

`CCOC(=O)Nc1ccc(NCc2cccc(C(F)(F)F)c2)nc1N` [NK-16-3, Ethyl 6-(3-(trifluoromethyl)benzylamino)-2-aminopyridin-3-ylcarbamate] was tested, and the viability at 1 µM (PC12 cells [1]; [4]) was 59.9 ± 13.8%, the viability at 3 µM (PC12 cells [1]; [5]) was 68.2 ± 7.5% and the viability at 10 µM (PC12 cells [1]; [6]) was 60.4 ± 19.4%. For the same compound, the viability at 30 µM (PC12 cells [1]; [7]) was 46.4 ± 12.8%, the viability at 1 µM (PC12 cells [2]; [8]) was 83.6 ± 14.3% and the viability at 3 µM (PC12 cells [2]; [9]) was 80.7 ± 8.11%. The viability at 10 µM (PC12 cells [2]; [10]) was 86.9 ± 9.07% and the viability at 30 µM (PC12 cells [2]; [11]) was 84.2 ± 16.1%.
